What was measured:
[1] = background statement; cited from earlier work
[2] = system: Shigella sonnei ATCC 9290; test: Minimum inhibitory concentration (Table I); assay type: cell-based
Excerpt: (§1) Comparative data similarly obtained by using mitomycin A, mitomycin C and 7-N-phenyl mitomycin C are also shown in this table

[3] = system: Klebsiella pneumoniae ATCC 10031; test: Minimum inhibitory concentration (Table I); assay type: cell-based
Excerpt: as §1

[4] = system: Bacillus subtilis ATCC 10707; test: Minimum inhibitory concentration (Table I); assay type: cell-based
Excerpt: as §1

[5] = system: Staphylococcus aureus ATCC 6538P; test: Minimum inhibitory concentration (Table I); assay type: cell-based
Excerpt: as §1

[6] = background statement; cited from earlier work; remark: listed apart in the source

For `CO[C@@]12[C@H](COC(N)=O)C3=C(C(=O)C(C)=C(N)C3=O)N1C[C@@H]1N[C@@H]12` [II, mitomycin C], the antitumor activity [1] is listed as “interesting antitumor activity”, the minimum inhibitory concentration [2] is listed as 1.563 and the minimum inhibitory concentration [3] is listed as less than 0.025. For the same molecule, the minimum inhibitory concentration [4] was less than 0.025, the minimum inhibitory concentration [5] was 0.049 and the toxicity [6] was “relatively high toxicity”.

Reference: patent US4231936A, “Mitomycin C derivatives” (priority 1977, dated 1980)
